# From patent publication US11691972B2, “Compounds for targeted degradation of BRD9” (C4 Therapeutics, Inc., priority 2020, dated 2023)
# Biological target: T1, BRD9 (Homo sapiens, UniProt Q9H8M2)
# T1 sequence (Q9H8M2 1-597): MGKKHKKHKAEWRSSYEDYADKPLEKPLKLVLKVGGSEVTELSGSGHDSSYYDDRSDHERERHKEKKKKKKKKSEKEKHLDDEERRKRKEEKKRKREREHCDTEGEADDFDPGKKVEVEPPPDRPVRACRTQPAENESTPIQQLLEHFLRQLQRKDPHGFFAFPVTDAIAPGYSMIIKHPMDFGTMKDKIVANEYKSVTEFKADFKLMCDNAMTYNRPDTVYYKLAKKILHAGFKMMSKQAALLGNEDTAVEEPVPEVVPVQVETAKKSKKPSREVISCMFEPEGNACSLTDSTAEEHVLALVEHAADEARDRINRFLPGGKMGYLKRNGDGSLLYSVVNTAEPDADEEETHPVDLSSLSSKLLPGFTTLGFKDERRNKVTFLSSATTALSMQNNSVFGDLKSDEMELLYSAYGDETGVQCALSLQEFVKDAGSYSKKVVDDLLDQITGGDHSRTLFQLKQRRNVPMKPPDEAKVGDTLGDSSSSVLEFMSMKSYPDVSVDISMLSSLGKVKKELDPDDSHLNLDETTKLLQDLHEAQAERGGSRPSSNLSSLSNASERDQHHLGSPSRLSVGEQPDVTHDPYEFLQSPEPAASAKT
# Assay: HiBiT BRD9 degradation assay in 293T.166 (BRD9-HiBiT) cells
# Type: cell-based
# Design: endogenously expressing BRD9 with HiBiT fusion tag via CRISPR; host or cells: 293T.166 (BRD9-HiBiT), also expressing LgBiT ectopically
# Details: Table 1; 293T.166 cells, 2.0 hours; class symbols; read-out: HiBiT-Degradation 293T.166 BRD9 2.0 hours (DC50)
# Outline: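 293T.166 cells carrying endogenous CRISPR BRD9-HiBiT and expressing LgBiT treated 2 h at 37° C. with compounds, 11-point half-log titration from 10 μM in duplicate. Remaining BRD9 measured as lytic HiBiT luminescence; untreated cells as negative control, no-reagent wells as positive control.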
row,DC50 [nM],Compound
1,< 100,CC(c1ccc(-c2cn(C)c(=O)c3cc(F)ccc23)cc1OC(F)(F)F)N1CCC(C2CCN(c3ccc(NC4CCC(=O)NC4=O)cc3F)CC2)CC1 (stereo not drawn) [Compound 93]
2,< 100,"COc1cc(-c2cn(C)c(=O)c3[nH]ncc23)cc(F)c1CN1CCC(N(C)C(=O)N2CCC(c3ccc(NC4CCC(=O)NC4=O)cc3)CC2)CC1 (stereo not drawn) [Compound 112, 4-[4[(2,6-dioxo-3-piperidyl)amino]phenyl]-N-[1-[[2-fluoro-6-methoxy-4-(6-methyl-7-oxo-1H-pyrazolo[3,4-c]pyridin-4-yl)phenyl]methyl]-4-piperidyl]-N-methyl-piperidine-1-carboxamide]"
3,< 100,COc1cc(-c2cn(C)c(=O)c3cnccc23)cc(Cl)c1CN1CCC(N2CCC(c3ccc(NC4CCC(=O)NC4=O)cc3F)CC2)C(F)(F)C1 (stereo not drawn) [Compound 201]
4,< 100,COc1cc(-c2cn(C)c(=O)c3[nH]ncc23)cc(F)c1CN1CCN(C(=O)CN2CCC(c3ccc(NC4CCC(=O)NC4=O)cc3C(F)(F)F)CC2)CC1 (stereo not drawn) [Compound 23]
5,< 100,COc1cc(-c2cn(C)c(=O)c(C)c2C)cc(OC)c1CN1CCN(C(=O)CN2CCC(c3ccc(NC4CCC(=O)NC4=O)cc3)CC2)CC1 (stereo not drawn) [Compound 30]
6,< 100,COc1cc(-c2cn(C)c(=O)c3cnccc23)cc(F)c1C(=O)N1CCC(N2CCN(c3ccc(NC4CCC(=O)NC4=O)cc3F)CC2)C(F)(F)C1 (stereo not drawn) [Compound 226]
7,< 100,COc1cc(-c2cn(C)c(=O)c3cnccc23)cc(F)c1CN1CCC(C2CCN(c3ccc(NC4CCC(=O)NC4=O)cc3C(F)(F)F)CC2)CC1 (stereo not drawn) [Compound 87]
8,< 100,COc1cc(-c2cn(C)c(=O)c3[nH]ncc23)cc(Cl)c1CN1CCC(CCC2CCN(c3ccc(NC4CCC(=O)NC4=O)cc3F)CC2)CC1 (stereo not drawn) [Compound 148]
9,< 100,COc1cc(-c2cn(C)c(=O)c3cnccc23)cc(Cl)c1CN1CCc2c(cccc2CN2CCC(c3ccc(NC4CCC(=O)NC4=O)cc3)C(F)(F)C2)C1 (stereo not drawn) [Compound 99]
10,< 100,"COc1cc(-c2cn(C)c(=O)c(C)c2C)cc(Cl)c1C(=O)N1CCC(C2CCN(c3ccc(NC4CCC(=O)NC4=O)cn3)CC2)CC1 (stereo not drawn) [Compound 218, 3-[[6-[4-[1-[2-chloro-6-methoxy-4-(1,4,5-trimethyl-6-oxo-3-pyridyl)benzoyl]-4-piperidyl]-1-piperidyl]-3-pyridyl]amino]piperidine-2,6-dione]"
11,< 100,COc1cc(-c2cn(C)c(=O)c3[nH]ncc23)cc(Cl)c1CN1CCC(C2CCN(c3ccc(NC4CCC(=O)NC4=O)cc3)CC2)CC1 (stereo not drawn) [Compound 71]
12,< 100,Cn1cc(-c2ccc(C(=O)N3CCC(C4CCN(c5ccc(NC6CCC(=O)NC6=O)cc5F)CC4)CC3)c(OC(F)(F)F)c2)c2ccncc2c1=O (stereo not drawn) [Compound 211]
13,< 100,"COc1cc(-c2cn(C)c(=O)c(C)c2C)cc(OC)c1CN1C2CCC1CN(C(=O)CC1CCN(c3ccc(NC4CCC(=O)NC4=O)cc3C(F)(F)F)CC1)C2 (stereo not drawn) [Compound 63, 3-[4-[4-[2-[8-[[2,6-dimethoxy-4-(1,4,5-trimethyl-6-oxo-3-pyridyl)phenyl]methyl]-3,8-diazabicyclo[3.2.1]octan-3-yl]-2-oxo-ethyl]-1-piperidyl]-3-(trifluoromethyl)anilino]piperidine-2,6-dione]"
14,< 100,"COc1cc(-c2cn(C)c(=O)c3[nH]ncc23)cc(OC)c1CNc1ccc(CC(=O)N2CCC(c3ccc(NC4CCC(=O)NC4=O)cc3)CC2)cc1 (stereo not drawn) [Compound 165, 3-[4-[1-[2-[4-[[2,6-dimethoxy-4-(6-methyl-7-oxo-1H-pyrazolo[3,4-c]pyridin-4-yl)phenyl]methylamino]phenyl]acetyl]-4-piperidyl]anilino]piperidine-2,6-dione]"

# Same assay, conditions: Table 2; 293T.166 cells, 2.0 hours; class symbols; read-out: HiBiT-Degradation 293T.166 BRD9 2.0 hours (DC50)
row,DC50 [nM],Compound
1,< 100,"COc1cc(-c2cn(C)c(=O)c3ccccc23)cnc1CN1CCC(N2CCN(c3ccc(NC4CCC(=O)NC4=O)cc3F)CC2)C(F)(F)C1 (stereo not drawn) [Compound 261, 3-[4-[4-[3,3-difluoro-1-[[3-methoxy-5-(2-methyl-1-oxo-4-isoquinolyl)-2-pyridyl]methyl]-4-piperidyl]piperazin-1-yl]-3-fluoro-anilino]piperidine-2,6-dione]"
